According to US20100168008A1, “METHOD OF USE OF EPIREGULIN PROTEIN AND NUCLEIC ACID ENCODING THE SAME IN INFLAMMATORY CONDITIONS” (PIRAMAL LIFE SCIENCES LIMITED., priority 2006, published 2010):

Columns and labels:
[1] = system: EREG expression in PBMC; assay: EREG expression in PBMC by real time polymerase chain reaction (RT-PCR); type: cell-based, Human; details: 10 μM drug
Procedure: Exposure of PBMCs to P979 and Rolipram: Human peripheral blood leukocytes were obtained from normal blood donors by density gradient separation, washed with PBS (phosphate buffered saline), and plated on petri dishes using RPMI medium. […] After 2 hours, cells were harvested and RNA was prepared.
Real Time Polymerase Chain Reaction (RT-PCR): To confirm the data obtained from microarray, we performed RT-PCR using specific primers for epiregulin gene.
EREG expression in PBMCs after exposure to anti-inflammatory agent was confirmed by real time polymerase chain reaction (RT-PCR). Microarray based gene expression profiling studied large-scale gene expression. RT PCR focused on the gene/genes of interest and expression analysis was carried out under similar experimental conditions.
The aliquot of RNA samples as used for microarray study was used for RT-PCR analysis. The experiment was carried out using cMaster™ RTplusPCR System kit from Eppendorf using the protocol as provided in the kit. Briefly, cDNA was synthesized using RNA from various sources as shown in the results and subsequently quantified during amplification step by incorporation of Syber green dye into the amplicons.

[2] = system: EREG expression in PBMCs; assay: EREG expression in PBMCs after exposure to anti-inflammatory agent, microarray based expression profiling; type: cell-based, Human
Procedure: Exposure of PBMCs to P979 and Rolipram: Human peripheral blood leukocytes were obtained from normal blood donors by density gradient separation, washed with PBS (phosphate buffered saline), and plated on petri dishes using RPMI medium. Cells were treated for 30 minutes with test compounds at concentrations 0.3, 1.0 and 3.0 μM and with Rolipram at 300 μM as a control as shown in the results section and subsequently activated with bacterial lipopolysaccharide (LPS). After 2 hours, cells were harvested and RNA was prepared.
Preparation of RNA: RNA was prepared by adding 1 ml of trizol reagent (Sigma) subsequently purified using Qiagen-RNAEasy kit, using the instruction from manufacturer's protocol. Quality and quantity of RNA was measured by spectrometry and gel electrophoresis.
Gene expression profiling by microarray: A total of 10 μg of RNA was used to generate cRNA, which is subsequently labeled with Cy3 or Cy5 fluorescent dyes. Control and test cRNAs labeled with Cy3 and Cy5 respectively were pooled and hybridized to DNA chip. […] Following image analysis, image intensity for each of the 23, 290 spots were measured for test and control slides.
Gene expression was expressed as a ratio of the image intensity between test and control slide for a given gene (Table 3). […]

For `COc1ccc(C2CNC(=O)C2)cc1OC1CCCC1` (stereo not drawn) [Rolipram], the “Log-fold Change (EREG expression)” value [1] was 1.2, the “Ratio intensity (EREG expression, test vs control slide)” value ([2]; 300 μM drug, 30 minutes, then LPS activation, harvested after 2 hours) was 1.03 and the “expression of epiregulin gene up-regulated (in words)” value ([2]; microarray) was “not”.
